Results reported in patent US20220322673A1, “Novel Agrochemical Combinations” (UPL LIMITED, priority 2019, published 2022).
Where two headings read alike, the source gives them in different places.

What was measured:
Type in all cases: in vivo
Okra Mites = assay: Trials on controlling Okra Mites post 2nd and 3rd application (Example 2); settings: doses gm/ha: OSA 625 + Flonicamid 50 / Acetamipirid 50 / Lancer Gold 650, solo OSA 1250, Flonicamid 75, Acetamipirid 50, Lancer gold 650; for Percent control Mean: Mean of B07, C-01, C-10
Experimental: Trials were conducted to test the efficacy of the combination of Flonicamid and Orthosilicic acid on controlling Okra Mites at different dosages post 2nd and 3rd application.

[1] = system: Okra Aphids (Aphis gossypii); settings: for Percent control (%) of Okra Aphids, Nymphs + Adults, A01: A01 = 1 day after first spray; for Percent control (%) of Okra Aphids, Nymphs + Adults, A10: A10 (after 1st spray); for Percent control (%) of Okra Aphids, Nymphs + Adults, B03: B03 = 3 days after 2nd spray; for Percent control (%) of Okra Aphids, Nymphs + Adults, B07: B07 (after 2nd spray); for Percent control (%) of Okra Aphids, Nymphs + Adults, B10: B10 (after 2nd spray); for Percent control (%) of Okra Aphids, Nymphs + Adults, C03: C03 = 3 days after third spray; for Percent control (%) of Okra Aphids, Nymphs + Adults, C10: C10 (after third spray)
Description: (§1) In this evaluation, feeding damage & insect population on Okra Leaves before and after sprays is averaged and analyzed for the test of significance. Application method: Three applications (application A, B and C) within an interval of 14 days.

[2] = system: Okra Jassids (Amrasca bigutulla bigutulla); settings: for Percent control (%) of Okra Jassids, Nymphs + Adults, A01: A01 = 1 day after first spray; for Percent control (%) of Okra Jassids, Nymphs + Adults, A10: A10 (after 1st spray); for Percent control (%) of Okra Jassids, Nymphs + Adults, B03: B03 = 3 days after 2nd spray; for Percent control (%) of Okra Jassids, Nymphs + Adults, B07: B07 (after 2nd spray); for Percent control (%) of Okra Jassids, Nymphs + Adults, B10: B10 (after 2nd spray); for Percent control (%) of Okra Jassids, Nymphs + Adults, B14: B14 (after 2nd spray); for Percent control (%) of Okra Jassids, Nymphs + Adults, C03: C03 = 3 days after third spray; for Percent control (%) of Okra Jassids, Nymphs + Adults, C10: C10 (after third spray)
Description: as §1

Okra Aphids = assay: Trials of Flonicamid and Orthosilicic acid on controlling Okra Aphids (Example 1); settings: doses gm/ha: OSA + Flonicamid 625 + 50, Flonicamid 75, OSA 1250
Experimental: Trials were conducted to test the efficacy of the combination of Flonicamid and Orthosilicic acid on controlling Okra Aphids at different dosages.

[3] = doses gm a.i./ha: OSA 25, Flonicamid 100, Acephate+Imidacloprid 520, Flonicamid+Fipronil 100+50, Imidacloprid 24.5, Acetamiprid 15
[4] = reduced insecticide dose, gm a.i./ha: OSA 25, Flonicamid (Ulala) 75, Acephate+Imidacloprid 390, Flonicamid+Fipronil 75+37.5, Imidacloprid 18.3, Acetamiprid 11.2
[5] = 25% reduced dose rate, gm a.i./ha: OSA 25, Flonicamid 75, Acephate+Imidacloprid 390, Flonicamid+Fipronil 75+37.5, Imidacloprid 18.3, Acetamiprid 11.2

In the case of `C/C(=N\C#N)N(C)Cc1ccc(Cl)nc1` [Acetamipirid, Acetamiprid], the “Percent control B07” value (Okra Mites) is reported as 24.6%, the “Percent control C-01” value (Okra Mites) is reported as 26.9% and the “Percent control C-10” value (Okra Mites) is reported as 22.2%. The “Percent control Mean” value (Okra Mites) was 24.56%, the “Percent control (%) of Okra Aphids, Nymphs + Adults, A01” value [1, 3] was 71.1% and the “Percent control (%) of Okra Aphids, Nymphs + Adults, A01” value [1, 4] was 64.8%. The “Percent control (%) of Okra Aphids, Nymphs + Adults, A10” value [1, 3] was 86.1%, the “Percent control (%) of Okra Aphids, Nymphs + Adults, A14” value ([1]; A14 = 14 days after 1st spray, reduced insecticide dose, gm a.i./ha: OSA 25, Flonicamid (Ulala) 75, Acephate+Imidacloprid 390, Flonicamid+Fipronil 75+37.5, Imidacloprid 18.3, Acetamiprid 11.2) was 74.7% and the “Percent control (%) of Okra Aphids, Nymphs + Adults, B03” value [1, 3] was 86.8%. The “Percent control (%) of Okra Aphids, Nymphs + Adults, B03” value [1, 4] was 79.7%, the “Percent control (%) of Okra Aphids, Nymphs + Adults, B07” value [1, 3] was 86.7% and the “Percent control (%) of Okra Aphids, Nymphs + Adults, B07” value [1, 4] was 81.8%. For the same molecule, the “Percent control (%) of Okra Aphids, Nymphs + Adults, B10” value [1, 3] was 85%, the “Percent control (%) of Okra Aphids, Nymphs + Adults, B10” value [1, 4] was 82.5% and the “Percent control (%) of Okra Aphids, Nymphs + Adults, C03” value [1, 3] was 87.4%. For the same molecule, the “Percent control (%) of Okra Aphids, Nymphs + Adults, C03” value [1, 4] was 86.9%, the “Percent control (%) of Okra Aphids, Nymphs + Adults, C10” value [1, 3] was 87.6% and the “Percent control (%) of Okra Aphids, Nymphs + Adults, C10” value [1, 4] was 86.5%. The “Percent control (%) of Okra Jassids, Nymphs + Adults, A01” value [2, 5] was 59.3%, the “Percent control (%) of Okra Jassids, Nymphs + Adults, A01” value [2, 3] was 66.4% and the “Percent control (%) of Okra Jassids, Nymphs + Adults, A10” value [2, 5] was 64.4%. The “Percent control (%) of Okra Jassids, Nymphs + Adults, A10” value [2, 3] was 72.4%, the “Percent control (%) of Okra Jassids, Nymphs + Adults, B03” value [2, 5] was 68.8% and the “Percent control (%) of Okra Jassids, Nymphs + Adults, B03” value [2, 3] was 73.9%. The “Percent control (%) of Okra Jassids, Nymphs + Adults, B07” value [2, 5] was 70.9%, the “Percent control (%) of Okra Jassids, Nymphs + Adults, B07” value [2, 3] was 76.7% and the “Percent control (%) of Okra Jassids, Nymphs + Adults, B10” value [2, 5] was 71.3%. For the same molecule, the “Percent control (%) of Okra Jassids, Nymphs + Adults, B10” value [2, 3] was 76.9%, the “Percent control (%) of Okra Jassids, Nymphs + Adults, B14” value (from here on “Percent control (%) … B14”) [2, 5] was 66.6% and the “Percent control (%) … B14” value [2, 3] was 70.9%. For the same molecule, the “Percent control (%) of Okra Jassids, Nymphs + Adults, C03” value [2, 5] was 69.5%, the “Percent control (%) of Okra Jassids, Nymphs + Adults, C03” value [2, 3] was 74.8% and the “Percent control (%) of Okra Jassids, Nymphs + Adults, C10” value [2, 5] was 70.7%. The “Percent control (%) of Okra Jassids, Nymphs + Adults, C10” value [2, 3] was 79.3%.
In the case of `N#CCNC(=O)c1cnccc1C(F)(F)F` [Flonicamid, N-cyanomethyl-4-trifluoromethylnicotinamide], the “Percent control B01” value (Okra Aphids; B01) is reported as 88.8%, the “Percent control C-01” value (Okra Aphids; C-01) is reported as 91.8% and the “Percent control C-10” value (Okra Aphids; C-10) is reported as 96%. For the same molecule, the “Percent control Mean” value (Okra Aphids; Mean of B01, C-01, C-10) was 92.2%, the “Percent control B07” value (Okra Mites) was 31.8% and the “Percent control C-01” value (Okra Mites) was 39.5%. The “Percent control C-10” value (Okra Mites) was 34.0%, the “Percent control Mean” value (Okra Mites) was 35.1% and the “Percent control (%) of Okra Aphids, Nymphs + Adults, A01” value [1, 3] was 78.2%. The “Percent control (%) of Okra Aphids, Nymphs + Adults, A10” value [1, 3] was 91.9%, the “Percent control (%) of Okra Aphids, Nymphs + Adults, B03” value [1, 3] was 95.1% and the “Percent control (%) of Okra Aphids, Nymphs + Adults, B07” value [1, 3] was 95.5%. For the same molecule, the “Percent control (%) of Okra Aphids, Nymphs + Adults, B10” value [1, 3] was 93%, the “Percent control (%) of Okra Aphids, Nymphs + Adults, C03” value [1, 3] was 94.7% and the “Percent control (%) of Okra Aphids, Nymphs + Adults, C10” value [1, 3] was 94.9%. The “Percent control (%) of Okra Jassids, Nymphs + Adults, A01” value [2, 5] was 71.2%, the “Percent control (%) of Okra Jassids, Nymphs + Adults, A01” value [2, 3] was 74.8% and the “Percent control (%) of Okra Jassids, Nymphs + Adults, A10” value [2, 5] was 85.8%. The “Percent control (%) of Okra Jassids, Nymphs + Adults, A10” value [2, 3] was 89.3%, the “Percent control (%) of Okra Jassids, Nymphs + Adults, B03” value [2, 5] was 82% and the “Percent control (%) of Okra Jassids, Nymphs + Adults, B03” value [2, 3] was 90.7%. For the same molecule, the “Percent control (%) of Okra Jassids, Nymphs + Adults, B07” value [2, 5] was 89.3%, the “Percent control (%) of Okra Jassids, Nymphs + Adults, B07” value [2, 3] was 93.3% and the “Percent control (%) of Okra Jassids, Nymphs + Adults, B10” value [2, 5] was 91.5%. For the same molecule, the “Percent control (%) of Okra Jassids, Nymphs + Adults, B10” value [2, 3] was 94.2%, the “Percent control (%) … B14” value [2, 5] was 87.4% and the “Percent control (%) … B14” value [2, 3] was 89.3%. The “Percent control (%) of Okra Jassids, Nymphs + Adults, C03” value [2, 5] was 90.2%, the “Percent control (%) of Okra Jassids, Nymphs + Adults, C03” value [2, 3] was 93.3% and the “Percent control (%) of Okra Jassids, Nymphs + Adults, C10” value [2, 5] was 92.5%. For the same molecule, the “Percent control (%) of Okra Jassids, Nymphs + Adults, C10” value [2, 3] was 94.4%.
